Experimental data reported in US11135320B2, “Radioligands for pretargeted pet imaging and methods of their therapeutic use” (priority 2015, dated 2021).
Values joined by “and” are separate entries in the source; they are usually repeats but may differ in a detail not shown here. Equal values may be shown once.

Tested on: subcutaneous SW1222 xenografts (A33 antigen-expressing human colorectal carcinoma)
Test: Pretargeted biodistribution with huA33-TCO and ^64Cu-tetrazine radioligand
Assay type: in vivo, athymic nude mice
Protocol: Female athymic nude mice bearing subcutaneous SW1222 (right shoulder) xenografts (100-150 mm^3, 18-21 days post-inoculation) were administered 100 μg (0.66 nmol) huA33-TCO (in 200 μL 0.9% sterile saline) via intravenous tail vein injection. […] The specific activity of the radiotracer was adjusted using cold ^natCu-Tz-SarAr such that the molar ratio of Tzinjected:huA^33injected=1:1. Animals (n=4 per group) were euthanized by CO2(g) asphyxiation at 1, 4, 12, and 24 h after injection. After asphyxiation, 13 tissues were removed, rinsed in water, dried in air for 5 min, weighed, and counted in a gamma counter calibrated for ^64Cu. Counts were converted into activity using a calibration curve generated from known standards. Count data were background- and decay-corrected to the time of injection, and the percent injected dose per gram (% ID/g) for each tissue sample was calculated by normalization to the total activity injected. Contents within the stomach, small intestine, and large intestine were not removed for the measurements.
Contents within the stomach, small intestine, and large intestine were not removed for the measurements. […] Zeglis, B. M. et al. “A pretargeted PET imaging strategy based on bioorthogonal Diels-Alder click chemistry.” Journal of Nuclear Medicine. 54, 1389-1396 (2013). ©2013 by the Society of Nuclear Medicine and Molecular Imaging, Inc.
Zeglis, B. M. et al. “A pretargeted PET imaging strategy based on bioorthogonal Diels-Alder click chemistry.” Journal of Nuclear Medicine. 54, 1389-1396 (2013). ©2013 by the Society of Nuclear Medicine and Molecular Imaging, Inc.
(§1) Female athymic nude mice bearing subcutaneous SW1222 (right shoulder) xenografts (100-150 mm^3, 18-21 days post-inoculation) were administered 100 μg (0.66 nmol) huA33-TCO (in 200 μL 0.9% sterile saline) via intravenous tail vein injection. After an accumulation interval of 48 h, the same mice were then administered ^64Cu-Tz-SarAr (300-350 μCi in 200 μL 0.9% sterile saline) via intravenous tail vein injection (t=0). The specific activity of the radiotracer was adjusted using cold ^natCu-Tz-SarAr such that the molar ratio of Tzinjected:huA^33injected=1:1. Animals (n=4 per group) were euthanized by CO2(g) asphyxiation at 1, 4, 12, and 24 h after injection. After asphyxiation, tissues were removed, rinsed in water, dried in air for 5 min, weighed, and counted in a gamma counter calibrated for ^64Cu. Counts were converted into activity using a calibration curve generated from known standards. Count data were background- and decay-corrected to the time of injection, and the percent injected dose per gram (% ID/g) for each tissue sample was calculated by normalization to the total activity injected. Contents within the stomach, small intestine, and large intestine were not removed for the measurements.
as §1, with “120” for “48”, “Contents within the stomach, small intestine, and large intestine were not removed for the measurements.” left out

[1] = 24 h accumulation interval, 1 h p.i.
[2] = 24 h accumulation interval, 4 h p.i.
[3] = 24 h accumulation interval, 12 h p.i.
[4] = 24 h accumulation interval, 24 h p.i.
[5] = 48 h accumulation interval, 1 h p.i.
[6] = 48 h accumulation interval, 4 h p.i.

NC12CNCCNCC(NCc3ccc(CNC(=O)CCCC(=O)NCc4ccc(-c5nncnn5)cc4)cc3)(CNCCNC1)CNCCNC2.[64Cu+2] [^64Cu-Tz-SarAr]
Blood activity concentration [1]: 4.2±0.8 % ID/g and 4.20 ± 0.80^a % ID/g | Bone activity concentration [1]: 0.67 ± 0.14 % ID/g | Heart activity concentration [1]: 1.81 ± 0.46 % ID/g | Kidney activity concentration [1]: 3.1±0.3 % ID/g and 3.08 ± 0.28 % ID/g | Large Intestine activity concentration [1]: 0.21±0.09 % ID/g | Liver activity concentration [1]: 1.60 ± 0.12 % ID/g | Lung activity concentration [1]: 1.65 ± 0.51 % ID/g | Muscle activity concentration [1]: 0.38 ± 0.06 % ID/g | Small Intestine activity concentration [1]: 0.88 ± 0.09 % ID/g | Spleen activity concentration [1]: 0.98 ± 0.25 % ID/g | Stomach activity concentration [1]: 0.73 ± 0.19 % ID/g | Tumor activity concentration [1]: 5.63±0.67 % ID/g | Tumor/Blood activity concentration ratio [1]: 1.34 ± 0.3 | Tumor/Bone activity concentration ratio [1]: 8.43 ± 2.07 | Tumor/Heart activity concentration ratio [1]: 3.11 ± 0.87 | Tumor/Kidney activity concentration ratio [1]: 1.83 ± 0.27 | Tumor/Large Intestine activity concentration ratio [1]: 26.88 ± 12.11 | Tumor/Liver activity concentration ratio [1]: 3.52 ± 0.49 | Tumor/Lung activity concentration ratio [1]: 3.40 ± 1.12 | Tumor/Muscle activity concentration ratio [1]: 14.9±2.9 and 14.92 ± 2.85 | Tumor/Small Intestine activity concentration ratio [1]: 6.42 ± 1.01 | Tumor/Spleen activity concentration ratio [1]: 5.75 ± 1.61 | Tumor/Stomach activity concentration ratio [1]: 7.75 ± 2.24 | Blood activity concentration [2]: 4.0±0.37 % ID/g | Bone activity concentration [2]: 0.34 ± 0.18 % ID/g | Heart activity concentration [2]: 1.45 ± 0.03 % ID/g | Kidney activity concentration [2]: 2.77 ± 0.57 % ID/g | Large Intestine activity concentration [2]: 0.48 ± 0.09 % ID/g | Liver activity concentration [2]: 1.45 ± 0.21 % ID/g | Lung activity concentration [2]: 1.55 ± 0.45 % ID/g | Muscle activity concentration [2]: 0.37 ± 0.07 % ID/g | Small Intestine activity concentration [2]: 0.62 ± 0.06 % ID/g | Spleen activity concentration [2]: 0.81 ± 0.20 % ID/g | Stomach activity concentration [2]: 0.56 ± 0.20 % ID/g | Tumor activity concentration [2]: 5.56±0.91 % ID/g and 5.6±0.9 % ID/g | Tumor/Blood activity concentration ratio [2]: 1.39 ± 0.26 | Tumor/Bone activity concentration ratio [2]: 16.15 ± 8.89 | Tumor/Heart activity concentration ratio [2]: 3.84 ± 0.63 | Tumor/Kidney activity concentration ratio [2]: 2.00 ± 0.53 | Tumor/Large Intestine activity concentration ratio [2]: 11.65 ± 2.99 | Tumor/Liver activity concentration ratio [2]: 3.83 ± 0.83 | Tumor/Lung activity concentration ratio [2]: 3.59 ± 1.20 | Tumor/Muscle activity concentration ratio [2]: 14.84 ± 3.69 | Tumor/Small Intestine activity concentration ratio [2]: 8.96 ± 1.71 | Tumor/Spleen activity concentration ratio [2]: 6.88 ± 2.01 | Tumor/Stomach activity concentration ratio [2]: 9.91 ± 3.85 | Blood activity concentration [3]: 2.19 ± 0.39 % ID/g | Bone activity concentration [3]: 0.23 ± 0.05 % ID/g | Heart activity concentration [3]: 0.84 ± 0.1 % ID/g | Kidney activity concentration [3]: 1.87 ± 0.42 % ID/g | Large Intestine activity concentration [3]: 0.20 ± 0.04 % ID/g | Liver activity concentration [3]: 1.33 ± 0.53 % ID/g | Lung activity concentration [3]: 1.24 ± 0.22 % ID/g | Muscle activity concentration [3]: 0.15 ± 0.01 % ID/g | Small Intestine activity concentration [3]: 0.35 ± 0.08 % ID/g | Spleen activity concentration [3]: 0.65 ± 0.17 % ID/g | Stomach activity concentration [3]: 0.21 ± 0.1 % ID/g | Tumor activity concentration [3]: 6.74±1.26 % ID/g | Tumor/Bone activity concentration ratio [3]: 29.8 ± 8.38 | Tumor/Heart activity concentration ratio [3]: 8.01 ± 1.77 | Tumor/Kidney activity concentration ratio [3]: 3.61 ± 1.05 | Tumor/Large Intestine activity concentration ratio [3]: 33.67±8.82 | Tumor/Liver activity concentration ratio [3]: 5.06 ± 2.23 | Tumor/Lung activity concentration ratio [3]: 5.43 ± 1.41 | Tumor/Small Intestine activity concentration ratio [3]: 19.37 ± 5.95 | Tumor/Spleen activity concentration ratio [3]: 10.34 ± 3.27 | Tumor/Stomach activity concentration ratio [3]: 31.76 ± 16.62 | Blood activity concentration [4]: 2.61 ± 0.20 % ID/g | Bone activity concentration [4]: 0.29 ± 0.05 % ID/g | Heart activity concentration [4]: 0.81 ± 0.04 % ID/g | Kidney activity concentration [4]: 1.9±0.4 % ID/g and 2.00 ± 0.24 % ID/g | Large Intestine activity concentration [4]: 0.26 ± 0.06 % ID/g | Liver activity concentration [4]: 1.51 ± 0.2 % ID/g | Lung activity concentration [4]: 0.99 ± 0.24 % ID/g | Muscle activity concentration [4]: 0.20 ± 0.07 % ID/g | Small Intestine activity concentration [4]: 0.45 ± 0.07 % ID/g | Spleen activity concentration [4]: 0.64 ± 0.04 % ID/g | Stomach activity concentration [4]: 0.28 ± 0.07 % ID/g | Tumor activity concentration [4]: 7.38 ± 2.02 % ID/g | Tumor/Blood activity concentration ratio [4]: 2.83±0.81 | Tumor/Bone activity concentration ratio [4]: 25.46 ± 8.22 | Tumor/Heart activity concentration ratio [4]: 9.10 ± 2.54 | Tumor/Kidney activity concentration ratio [4]: 3.68 ± 1.1 | Tumor/Large Intestine activity concentration ratio [4]: 28.86 ± 10.28 | Tumor/Liver activity concentration ratio [4]: 4.87 ± 1.48 | Tumor/Lung activity concentration ratio [4]: 7.44 ± 2.74 | Tumor/Muscle activity concentration ratio [4]: 37.37±16.1 and 37.37 ± 16.06 | Tumor/Small Intestine activity concentration ratio [4]: 16.33 ± 5.12 | Tumor/Spleen activity concentration ratio [4]: 11.45 ± 3.20 | Tumor/Stomach activity concentration ratio [4]: 26.44 ± 9.89 | activity concentration in all other non-target tissues (24 h accumulation interval, later time points, other than blood and kidneys): less than 1.5 % ID/g | Blood activity concentration [5]: 2.15 ± 0.5 % ID/g | Bone activity concentration [5]: 0.23 ± 0.05 % ID/g | Heart activity concentration [5]: 1.05 ± 0.24 % ID/g | Kidney activity concentration [5]: 1.98 ± 0.26 % ID/g | Large Intestine activity concentration [5]: 0.29 ± 0.09 % ID/g | Liver activity concentration [5]: 1.79 ± 0.09 % ID/g | Lung activity concentration [5]: 1.68 ± 0.09 % ID/g | Muscle activity concentration [5]: 0.22 ± 0.11 % ID/g | Small Intestine activity concentration [5]: 0.54 ± 0.15 % ID/g | Spleen activity concentration [5]: 0.84 ± 0.27 % ID/g | Stomach activity concentration [5]: 0.39 ± 0.17 % ID/g | Tumor activity concentration [5]: 4.49 ± 0.44 % ID/g | Tumor/Blood activity concentration ratio [5]: 2.09 ± 0.52 | Tumor/Bone activity concentration ratio [5]: 19.48 ± 4.94 | Tumor/Heart activity concentration ratio [5]: 4.27 ± 1.05 | Tumor/Kidney activity concentration ratio [5]: 2.27 ± 0.37 | Tumor/Large Intestine activity concentration ratio [5]: 15.48 ± 5.25 | Tumor/Liver activity concentration ratio [5]: 2.51 ± 0.27 | Tumor/Lung activity concentration ratio [5]: 2.67 ± 0.3 | Tumor/Muscle activity concentration ratio [5]: 20.34 ± 10.25 | Tumor/Small Intestine activity concentration ratio [5]: 8.35 ± 2.48 | Tumor/Spleen activity concentration ratio [5]: 5.34 ± 1.79 | Tumor/Stomach activity concentration ratio [5]: 11.57 ± 5.25 | Blood activity concentration [6]: 1.78±0.28 % ID/g | Bone activity concentration [6]: 0.32 ± 0.12 % ID/g | Heart activity concentration [6]: 1.08 ± 0.32 % ID/g | Kidney activity concentration [6]: 1.83 ± 0.57 % ID/g | Large Intestine activity concentration [6]: 0.41 ± 0.11 % ID/g | Liver activity concentration [6]: 1.27 ± 0.19 % ID/g | Lung activity concentration [6]: 1.53 ± 0.28 % ID/g | Muscle activity concentration [6]: 0.24 ± 0.08 % ID/g | Small Intestine activity concentration [6]: 0.33 ± 0.1 % ID/g | Spleen activity concentration [6]: 0.6 ± 0.09 % ID/g | Stomach activity concentration [6]: 0.27 ± 0.18 % ID/g | Tumor activity concentration [6]: 5.2±1.4 % ID/g and 5.15 ± 1.42 % ID/g | Tumor/Blood activity concentration ratio [6]: 2.9 ± 0.92 | Tumor/Bone activity concentration ratio [6]: 15.86 ± 7.12 | Tumor/Heart activity concentration ratio [6]: 4.75 ± 1.92 | Tumor/Kidney activity concentration ratio [6]: 2.81 ± 1.16 | Tumor/Large Intestine activity concentration ratio [6]: 12.68 ± 4.87 | Tumor/Liver activity concentration ratio [6]: 4.06 ± 1.27 | Tumor/Lung activity concentration ratio [6]: 3.37 ± 1.11 | Tumor/Muscle activity concentration ratio [6]: 21.84 ± 9.2 | Tumor/Small Intestine activity concentration ratio [6]: 15.71 ± 6.48 | Tumor/Spleen activity concentration ratio [6]: 8.55 ± 2.69 | Tumor/Stomach activity concentration ratio [6]: 18.92 ± 13.29
